We go through 14 molecules from patent publication US20250282749A1 (Tango Therapeutics, Inc., priority 2022, published 2025).

Format in all cases: cell-based
Assay [1] deals with PRMT5 (SDMA) in HAP1 MTAP-intact cell line. Kind of assay: SDMA in-cell western assay, HAP1 MTAP-intact cell line. As to conditions: Homo sapiens, HAP1 MTAP-intact cell line (endogenous MTAP), read-out: Hap 1 MTAP intact IC50. The source says: (§1) HAP1 MTAP-intact is a cell line in which endogenous levels of MTAP are expressed, and HAP1 MTAP-deleted is an MTAP-null cell line.
The subject of assay [2] is HAP1 MTAP-deleted cell line. Put plainly: viability assay for the MTAP-deleted cell line. As to conditions: Homo sapiens.
Assay [3] deals with PRMT5 (SDMA) in HAP1 MTAP-deleted cell line. Put plainly: SDMA in-cell western assay, HAP1 MTAP-deleted cell line. As to conditions: for IC50 / IC90: Homo sapiens, SDMA in-cell western, HAP1 MTAP-deleted (MTAP-null) cell line; for Hap1 MTAP intact/deleted ratio: ratio of SDMA in-cell western IC50 in HAP1 MTAP-intact to IC50 in HAP1 MTAP-deleted cell line.
Description: as §1

Take `C[C@@H]1CN(C(=O)C(=O)Nc2cncc3cn[nH]c23)[C@@H](c2ccc3scnc3c2)CN1C(=O)C1(C)CC1` (racemic) [Compound 61, 2-oxo-N-(1H-pyrazolo[4,3-c]pyridin-7-yl)-2-[rac-(2S,5R)-2-(1,3-benzothiazol-5-yl)-5-methyl-4-(1-methylcyclopropanecarbonyl)piperazin-1-yl]acetamide]: the half-inhibitory concentration (IC50) was above 50 nM in assay [1], 100 to 1000 nM in assay [2] and 5 to 50 nM in assay [3]. The molecule further came in with a concentration for an effect of 90% (IC90) in assay [3] of 75 to 125 nM. In addition, the “Hap1 MTAP intact/deleted ratio” value in assay [3] is listed as “C (an IC50 ratio of less than 15 fold)”.

Take `C[C@@H]1CN(C(=O)C(=O)Nc2cnc(N)c(C3CC3)c2)[C@@H](c2ccc(F)c(Cl)c2)CN1C(=O)C1(C(F)(F)F)CC1` [Compound 14, N-(6-amino-5-cyclopropylpyridin-3-yl)-2-((2S,5R)-2-(3-chloro-4-fluorophenyl)-5-methyl-4-(1-(trifluoromethyl)cyclopropanecarbonyl)piperazin-1-yl)-2-oxoacetamide]: the values for the concentration for half-maximal inhibition (IC50) in assay [1], in assay [2] and in assay [3] were above 50 nM, below 100 nM and below 5 nM, respectively. For the same molecule, the IC90 in assay [3] was below 75 nM. Moreover, the “Hap1 MTAP intact/deleted ratio” value in assay [3] is listed as “C (an IC50 ratio of less than 15 fold)”.

For the molecule `C[C@@H]1CN(C(=O)C(=O)Nc2cncc3cn[nH]c23)[C@@H](c2ccccc2)CN1CC(C)(C)C` [Compound 44, 2-oxo-N-(1H-pyrazolo[4,3-c]pyridin-7-yl)-2-[(2S,5R)-4-(2,2-dimethylpropyl)-5-methyl-2-phenyl-piperazin-1-yl]acetamide], in assay [1], the IC50 was above 50 nM. The molecule also gave an IC50 in assay [2] of 100 to 1000 nM. Moreover, in assay [3], the IC50 is below 5 nM, the IC90 is below 75 nM and the “Hap1 MTAP intact/deleted ratio” value is “A (an IC50 ratio greater than or equal to 30 fold)”.

As to `C[C@@H]1CN(C(=O)C(=O)Nc2cnc(N)c3cn[nH]c23)[C@@H](c2ccc(F)cc2)CN1C(=O)C1(C(F)(F)F)CC1` [Compound 79], in assay [1], the IC50 lay in the range of 5 to 50 nM. Besides, in assay [2], the concentration for half-maximal inhibition (IC50) was below 100 nM. In addition, in assay [3], the IC50 was below 5 nM, the concentration for an effect of 90% (IC90) is below 75 nM and the “Hap1 MTAP intact/deleted ratio” value was “C (an IC50 ratio of less than 15 fold)”.

With `Cc1cc(NC(=O)C(=O)N2C[C@@H](C)N(C(=O)C3(C)CC3)C[C@@H]2c2ccc(Cl)cc2)cnc1N` [Compound 65], the half-maximal inhibitory concentration (IC50) in assay [1] was 5 to 50 nM; in assay [2], below 100 nM; in assay [3], below 5 nM. The molecule also gave an IC90 in assay [3] below 75 nM. The “Hap1 MTAP intact/deleted ratio” value in assay [3] is recorded as “C (an IC50 ratio of less than 15 fold)”.

For `CCc1cc(NC(=O)C(=O)N2C[C@@H](C)N(C(=O)C(C)C)C[C@@H]2c2ccc(F)c(Cl)c2)cnc1N` [Compound 87, N-(6-amino-5-ethylpyridin-3-yl)-2-((2S,5R)-2-(3-chloro-4-fluorophenyl)-4-isobutyryl-5-methylpiperazin-1-yl)-2-oxoacetamide], the half-maximal inhibitory concentration (IC50) in assay [1] is above 50 nM. The same molecule gave a half-maximal inhibitory concentration (IC50) in assay [2] below 100 nM. Further, in assay [3], the half-maximal inhibitory concentration (IC50) was below 5 nM, the 90% effect concentration (IC90) was above 125 nM and the “Hap1 MTAP intact/deleted ratio” value was “A (an IC50 ratio greater than or equal to 30 fold)”.

As to `C[C@@H]1CN(C(=O)C(=O)Nc2cncc3cn[nH]c23)[C@@H](c2ccccc2)CN1C(=O)C(C)(C)CN(C)C` [Compound 68, 2-((2S,5R)-4-(3-(dimethylamino)-2,2-dimethylpropanoyl)-5-methyl-2-phenylpiperazin-1-yl)-2-oxo-N-(1H-pyrazolo[4,3-c]pyridin-7-yl)acetamide], in assay [1], the half-inhibitory concentration (IC50) was above 50 nM. The molecule further showed an IC50 in assay [2] of 100 to 1000 nM. In addition, in assay [3], the IC50 was 5 to 50 nM, the IC90 lay in the range of 75 to 125 nM and the “Hap1 MTAP intact/deleted ratio” value was “A (an IC50 ratio greater than or equal to 30 fold)”.

With `COc1ncc(NC(=O)C(=O)N2C[C@@H](C)N(C(=O)C(C)C)C[C@@H]2c2cccc(N3CCN(C)CC3)c2)cc1C(N)=O` [Compound 10, 5-(2-((2S,5R)-4-isobutyryl-5-methyl-2-(3-(4-methylpiperazin-1-yl)phenyl)piperazin-1-yl)-2-oxoacetamido)-2-methoxynicotinamide], in assay [1], the concentration for half-maximal inhibition (IC50) was above 50 nM. In addition, in assay [2], the IC50 is 100 to 1000 nM. Further, in assay [3], the IC50 lay within 5 to 50 nM, the IC90 is above 125 nM and the “Hap1 MTAP intact/deleted ratio” value is given as “C (an IC50 ratio of less than 15 fold)”.

As for `Cc1cc(NC(=O)C(=O)N2C[C@@H](C)N(C(=O)C(C)C)C[C@@H]2c2ccc(F)c(Cl)c2)cnc1N` [Compound 74, N-(6-amino-5-methylpyridin-3-yl)-2-((2S,5R)-2-(3-chloro-4-fluorophenyl)-4-isobutyryl-5-methylpiperazin-1-yl)-2-oxoacetamide], the half-inhibitory concentration (IC50) in assay [1] is above 50 nM. For the same molecule, the half-inhibitory concentration (IC50) in assay [2] was in the range of 100 to 1000 nM. For the same molecule, in assay [3], the concentration for half-maximal inhibition (IC50) lay within 5 to 50 nM, the IC90 fell in the range of 75 to 125 nM and the “Hap1 MTAP intact/deleted ratio” value is given as “A (an IC50 ratio greater than or equal to 30 fold)”.

In the case of `C[C@H]1CN(C(=O)C(=O)Nc2cnc(N)c(C3CC3)c2)[C@H](c2ccc(F)cc2)CN1C(=O)CC1CC1` [Compound 6], the IC50 in assay [1] was above 50 nM. The IC50 in assay [2] is below 100 nM. Moreover, in assay [3], the half-inhibitory concentration (IC50) is 5 to 50 nM, the IC90 is 75 to 125 nM and the “Hap1 MTAP intact/deleted ratio” value was “B (an IC50 ratio greater than or equal to 15 fold but lower than 30 fold)”.

In the case of `CC(C)OC(=O)N1C[C@@H](c2ccc(F)cc2)N(C(=O)C(=O)Nc2cnc(N)c(C3CC3)c2)C[C@@H]1C` (stereo in doubt) [Compound 151, isopropyl 4-(2-((6-amino-5-cyclopropylpyridin-3-yl)amino)-2-oxoacetyl)-5-(4-fluorophenyl)-2-methylpiperazine-1-carboxylate], the IC50 was above 50 nM in assay [1], below 100 nM in assay [2] and below 5 nM in assay [3]. The 90% effect concentration (IC90) in assay [3] was below 75 nM. Moreover, the “Hap1 MTAP intact/deleted ratio” value in assay [3] was “B (an IC50 ratio greater than or equal to 15 fold but lower than 30 fold)”.

As for `C[C@@H]1CN(C(=O)C(=O)Nc2cnc(N)c3cn[nH]c23)[C@@H](c2ccc(F)cc2)CN1C` [Compound 135], the results for the 50% inhibitory concentration (IC50) in assay [1], in assay [2] and in assay [3] were above 50 nM, 100 to 1000 nM and below 5 nM, respectively. Moreover, the IC90 in assay [3] lay in the range of 75 to 125 nM. Besides, in assay [3], the “Hap1 MTAP intact/deleted ratio” value was “A (an IC50 ratio greater than or equal to 30 fold)”.

For `C[C@@H]1CN(C(=O)C(=O)Nc2cncc3cn[nH]c23)[C@@H](c2ccccc2)CN1C(=O)C1(C(F)(F)F)CC1` [Compound 100, 2-((2S,5R)-5-methyl-2-phenyl-4-(1-(trifluoromethyl)cyclopropanecarbonyl)piperazin-1-yl)-2-oxo-N-(1H-pyrazolo[4,3-c]pyridin-7-yl)acetamide], the IC50 in assay [1] is above 50 nM. Further, in assay [2], the half-inhibitory concentration (IC50) was below 100 nM. In addition, in assay [3], the IC50 lay within 5 to 50 nM, the IC90 was above 125 nM and the “Hap1 MTAP intact/deleted ratio” value was “C (an IC50 ratio of less than 15 fold)”.

Turning to `CCC(=O)N1C[C@H](c2ccc(F)cc2)N(C(=O)C(=O)Nc2cnc(N)c(C3CC3)c2)C[C@H]1C` [Compound 153], the IC50 in assay [1] was above 50 nM; in assay [2], 100 to 1000 nM; in assay [3], 5 to 50 nM. Also, in assay [3], the concentration for an effect of 90% (IC90) is above 125 nM. Moreover, the “Hap1 MTAP intact/deleted ratio” value in assay [3] is “B (an IC50 ratio greater than or equal to 15 fold but lower than 30 fold)”.
